In patent US20250281378A1, “PEPTIDE HAVING ACTIVITY OF PREVENTING HAIR LOSS OR PROMOTING HAIR GROWTH AND USE THEREOF” (CAREGEN CO., LTD., priority 2021, published 2025):

Experiments:
[1] = system: human hair follicle dermal papilla cells (HHFDPC); assay: Proliferation of dermal papilla cells (MTT, absorbance at 540 nm); type: cell-based; settings: peptide 500 nM, 5 μM, and 50 μM, 72 hours, compared to the untreated control group, FIG. 1
Experimental: While culturing human hair follicle dermal dermal papilla cells (HHFDPC), the absorbance was measured after treatment with the peptide of the present invention to confirm whether there was an effect of promoting the proliferation of the HHFDPC dermal papilla cells.
Specifically, HHFDPC (Sciencell, USA) was seeded at 4×10^3 cells/well in a 96-well culture plate, cultured in MSC complete medium (mesenchymal stem cell complete media, Sciencell, USA) for 24 hours, and then the medium was replaced with serum free MSC complete medium and cultured for another 24 hours. Then, the HHFDPC was treated with the peptide of SEQ ID NO: 1 prepared in the Preparation Example at concentrations of 500 nM, 5 μM, and 50 μM, respectively, and cultured at 37° C. for 72 hours. As a positive control, minoxidil was treated at a concentration of 1 μM, and as a negative control, HHFDPC without any treatment was used. Then, 10 ? of 5 mg/ml MTT solution was added and cultured in a 37° C. CO2 incubator for 4 hours to stain the cells. After removing the medium, the cells were treated with 100 μl of DMSO and shaken for 10 minutes, and the number of HHFDPC cells was confirmed by measuring absorbance at a wavelength of 540 nm using a spectrophotometer.

p-AKT = assay: Western blotting of phosphorylated AKT in HHFDPC; type: cell-based, human; settings: peptide 500 nM, 5 μM, and 50 μM, 24 hours, vs control group not treated, FIG. 2
Experimental: (§1) First, phosphorylated forms of AKT and ERK, which act as signaling molecules related to the proliferation of HHFDPC, were confirmed through Western blotting. Specifically, HHFDPC as in [Experiment Example 1-1] above was seeded at 4×10^5 cells/well in a 6-well culture plate, cultured in MSC complete medium (mesenchymal stem cell complete media) for 24 hours, and then the medium was replaced with serum free MSC complete medium and cultured for another 24 hours. Then, the HHFDPC was treated with the peptide of SEQ ID NO: 1 prepared in the Preparation Example at concentrations of 500 nM, 5 μM, and 50 μM, respectively, and cultured at 37° C. for 24 hours. As a positive control, minoxidil was treated at a concentration of 1 μM, and as a negative control, HHFDPC without any treatment was used. Then, Western blotting was performed to detect phosphorylated AKT and phosphorylated ERK. After washing with PBS, the cells were treated with 100 ? of lysis buffer to destroy cells, thereby obtaining cell lysate. After electrophoresis using a 10% SDS-PAGE gel, it was transferred to a PVDF membrane and blocked using 5% skim milk at room temperature for 30 minutes. […] After washing again with 0.1% PBS-T (0.1% Tween-20 in PBS) three times for 15 minutes each, p-AKT and p-ERK were detected by treatment with ECL solution (GE Healthcare, USA).

p-ERK = assay: Western blotting of phosphorylated ERK in HHFDPC; type: cell-based, human; settings: peptide 500 nM, 5 μM, and 50 μM, 24 hours, vs control group not treated, FIG. 2
Experimental: as §1

β-catenin = assay: Western blotting of β-catenin moved to the nucleus in HHFDPC; type: cell-based, human; settings: HHFDPC nuclear proteins, peptide 500 nM, 5 µM, and 50 μM, 24 hours, vs control group not treated, FIG. 3
Experimental: In addition, in addition to p-AKT and p-ERK, in order to confirm the activation of β-catenin, which is known to affect cell proliferation and differentiation, whether β-catenin moved into the nucleus was confirmed through Western blotting. Specifically, the HHFDPC as in [Experiment Example 1-1] was seeded in a 6-well culture plate at an amount of 4×10^5 cells/well, cultured in MSC complete medium (mesenchymal stem cell complete media) for 24 hours. Next, the medium was replaced with serum free MSC complete medium and cultured again for 24 hours. Then, the HHFDPC was treated with the peptide of SEQ ID NO: 1 prepared in the Preparation Example at concentrations of 500 nM, […], and 50 μM, respectively, and cultured at 37° C. for 24 hours. As a positive control, minoxidil was treated at a concentration of 1 μM, and as a negative control, HHFDPC without any treatment was used. After washing with PBS, proteins in the nucleus were isolated using a nuclear protein extraction kit (Thermo scientific, USA). After electrophoresis using a 10% SDS-PAGE gel, it was transferred to a PVDF membrane and blocked using 5% skim milk at room temperature for 30 minutes. […] After washing again with 0.1% PBS-T (0.1% Tween-20 in PBS) three times for 15 minutes each, β-catenin was detected by treatment with ECL solution (GE Healthcare, USA).

LEF-1 = assay: RT-PCR of LEF-1 expression in HHFDPC; type: cell-based, human; settings: peptide 500 nM, 5 μM, and 50 µM, 24 hours, vs control group without any treatment, FIG. 4
Experimental: (§2) Furthermore, in order to determine whether the β-catenin moves to the nucleus and is activated to affect proliferation and differentiation, whether the expression of LEF-1, c-Myc and cyclin D1 (cyclin D1), which act as downstream factors, increases with β-catenin activation was confirmed through RT-PCR. Specifically, in the same manner as the previous Western blotting experiment, HHFDPC cells were cultured, treated with the peptides prepared in the Preparation Example of the present invention at concentrations of 500 nM, 5 μM, and 50 µM, respectively, and cultured at 37° C. for 24 hours. After washing the cells with PBS, RNA was isolated by treating them with 300 […] of easy blue (intron, Korea). Then, CDNA was synthesized using a cDNA synthesis kit (enzynomics, Korea) by quantifying it with nano drop, and PCR was performed using primers for LEF-1, c-Myc and cyclin D1 (sequences of the primers are listed in Table 2 below) and PCR premix (enzynomics, Korea). Electrophoresis was performed on a 1.5% agarose gel, and then the mRNA of LEF-1, c-Myc and cyclin D1 was detected using a band analysis system (Bio-Rad gel image system).

c-Myc = assay: RT-PCR of c-Myc expression in HHFDPC; type: cell-based, human; settings: peptide 500 nM, 5 μM, and 50 µM, 24 hours, vs control group without any treatment, FIG. 4
Experimental: as §2

cyclin D1 = assay: RT-PCR of cyclin D1 expression in HHFDPC; type: cell-based, human; settings: peptide 500 nM, 5 μM, and 50 µM, 24 hours, vs control group without any treatment, FIG. 4
Experimental: as §2

DKK-1 protein = assay: Western blotting of DKK-1 protein in DHT-treated HHFDPC; type: cell-based, human; settings: HHFDPC with DHT 100 nM, peptide 500 nM, 5 μM, and 50 μM, 24 hours, vs negative control (DHT only), FIG. 5
Experimental: DKK-1 protein (dickkopf-related protein 1) is a hair loss-related protein known to be highly expressed in individuals with hair loss, especially male pattern hair loss, and its expression is known to be promoted by hormones such as DHT (Dihydrotestosterone). Accordingly, the expression of DKK-1 protein was induced by treating HHFDPC cells with DHT together with the peptide according to the Preparation Example of the present invention, and then the expression level of DKK-1 was measured through Western blotting to determine whether there was an effect of suppressing the expression of DKK-1 protein.
Specifically, as in [Experiment Example 1-1] above, HHFDPC was seeded in a 6-well culture plate at 4×10^5 cells/well and then cultured in MSC complete medium (mesenchymal stem cell complete media) for 24 hours. Next, the medium was replaced with serum free MSC complete medium and cultured again for 24 hours. […] After washing again with 0.1% PBS-T (0.1% Tween-20 in PBS) three times for 15 minutes each, DKK-1 protein was detected by treatment with ECL solution (GE Healthcare, USA).

Keratin 14 = assay: RT-PCR of Keratin 14 expression in HHORSC; type: cell-based, human; settings: peptide 500 nM, 5 μM, and 50 μM, 72 hours, vs control group without treatment, FIG. 6
Experimental: (§3) Specifically, HHORSC (human hair outer root sheath cell, Sciencell, USA) was seeded in a 6-well culture plate at 4×10^5 cells/well and then cultured in MSC complete medium (mesenchymal stem cell complete media) for 24 hours. Next, the medium was replaced with serum free MSC complete medium and cultured again for 24 hours. Then, the HHORSC was treated with the peptide of Preparation Example consisting of amino acid sequence of SEQ ID NO: 1 at concentrations of 500 nM, 5 μM, and 50 μM, respectively, and cultured at 37° C. for 72 hours. As a positive control, EGF was treated at a concentration of 50 nM, and as a negative control, HHORSC without any treatment was used. After washing with PBS, RNA was isolated by treating with 300 ? of easy blue (intron, Korea). Then, CDNA was synthesized using a cDNA synthesis kit (enzynomics, Korea) by quantification using nano drop, and PCR was performed using primers for Keratin 14 and Keratin 19 (base sequences of each primer are listed in Table 3 below) and PCR premix (enzynomics, Korea). Electrophoresis was performed on a 1.5% agarose gel, and the mRNAs of Keratin 14 and Keratin 19 were detected using a band analysis system (Bio-Rad gel image system).

Keratin 19 = assay: RT-PCR of Keratin 19 expression in HHORSC; type: cell-based, human; settings: peptide 500 nM, 5 μM, and 50 μM, 72 hours, vs control group without treatment, FIG. 6
Experimental: as §3

MSX2 = assay: RT-PCR of MSX2 expression in HHGMC; type: cell-based, human; settings: peptide 500 nM, 5 μM, and 50 μM, 72 hours, vs untreated control group, FIG. 7
Experimental: Specifically, HHGMC (human hair germinal matrix cell, Sciencell, USA) was seeded in a 6-well culture plate at 4×10^5 cells/well and then cultured in MSC complete medium (mesenchymal stem cell complete media) for 24 hours. Next, the medium was replaced with serum free MSC complete medium and cultured again for 24 hours. Then, the HHGMC was treated with the peptide of SEQ ID NO: 1 prepared in the Preparation Example at concentrations of 500 nM, 5 μM, and 50 μM, respectively, and cultured at 37° C. for 72 hours. As a positive control, EGF was treated at a concentration of 50 nM, and as a negative control, HHGMC without any treatment was used. After washing with PBS, RNA was isolated by treating with 300 ? of easy blue (intron, Korea). Next, cDNA was synthesized using a cDNA synthesis kit (enzynomics, Korea) by quantification using nano drop, and PCR was performed using primers for MSX2 (base sequences of the primers are listed in Table 4 below) and PCR premix (enzynomics, Korea). Electrophoresis was performed on a 1.5% agarose gel, and MSX2 mRNA was detected using a band analysis system (Bio-Rad gel image system).

## KLQEHLDM [peptide of the present invention]
[1]
  proliferation of HHFDPC (absorbance, MTT): proliferation of HHFDPC was promoted depending on the concentration of the treated peptide
p-AKT
  phosphorylation of AKT (p-AKT): phosphorylation was found to be increased compared to the control group
p-ERK
  phosphorylation of ERK (p-ERK): phosphorylation was found to be increased compared to the control group
β-catenin
  β-catenin moved to the nucleus (activation of β-catenin): migration due to activation of β-catenin increased
LEF-1
  amount of LEF-1 mRNA: the amount of mRNA increased further compared to the control group
c-Myc
  amount of c-Myc mRNA: the amount of mRNA increased further compared to the control group
Cyclin D1
  amount of cyclin D1 mRNA: the amount of mRNA increased further compared to the control group
DKK-1 protein
  amount of DKK-1 protein: the amount of DKK-1 protein was found to be reduced
Keratin 14
  amount of Keratin 14 mRNA: the amount of mRNA increased further compared to the control group
Keratin 19
  amount of Keratin 19 mRNA: the amount of mRNA increased further compared to the control group
MSX2
  amount of MSX2 mRNA: the amount of mRNA increased further compared to the untreated control group
